Experimental data as given in ChEMBL document CHEMBL4033641, “Design, synthesis and anticancer potential of NSC-319745 hydroxamic acid derivatives as DNMT and HDAC inhibitors” (Eur J Med Chem, 2017).
Active and inactive are the calls of the source. The rule behind the calls is not given here.

Tests used:
Homo sapiens [1] = organism: Homo sapiens; assay: Inhibition of HDAC in human U937 cells assessed as induction of histone H4K8 acetylation after 12 hrs by Western blot analysis; type: cell-based
U-937 [2] = assay: Induction of apoptosis in human U937 cells assessed as viable cells at 2.5 uM after 48 hrs by Annexin V-FITC/PI staining based flow cytometry (reference value: 99.4%); type: functional; details: U-937, 48 h, read-out: Activity
K562 = assay: Antiproliferative activity against human K562 cells after 72 hrs by MTT assay; type: functional, cell-based; details: K562, 72 h
Histone deacetylase 1 = Histone deacetylase 1 (Homo sapiens, UniProt Q13547); assay: Inhibition of HDAC1 (unknown origin) preincubated for 15 mins followed by substrate addition measured after 60 mins by fluorescence assay
U-937 [3] = assay: Induction of apoptosis in human U937 cells assessed as late apoptotic cells at 10 uM after 48 hrs by Annexin V-FITC/PI staining based flow cytometry (reference value: 0.438%); type: functional
Homo sapiens [4] = organism: Homo sapiens; assay: Inhibition of HDAC in human U937 cells assessed as induction of histone H3K9 acetylation after 12 hrs by Western blot analysis; type: cell-based
U-937 [5] = assay: Induction of apoptosis in human U937 cells assessed as late apoptotic cells at 5 uM after 48 hrs by Annexin V-FITC/PI staining based flow cytometry (reference value: 0.438%); type: functional
[6] = target: T1, Protein deacetylase HDAC6 (Homo sapiens, UniProt Q9UBN7); assay: Inhibition of HDAC6 (unknown origin) preincubated for 15 mins followed by substrate addition measured after 60 mins by fluorescence assay
T1 sequence (Q9UBN7 whole entry): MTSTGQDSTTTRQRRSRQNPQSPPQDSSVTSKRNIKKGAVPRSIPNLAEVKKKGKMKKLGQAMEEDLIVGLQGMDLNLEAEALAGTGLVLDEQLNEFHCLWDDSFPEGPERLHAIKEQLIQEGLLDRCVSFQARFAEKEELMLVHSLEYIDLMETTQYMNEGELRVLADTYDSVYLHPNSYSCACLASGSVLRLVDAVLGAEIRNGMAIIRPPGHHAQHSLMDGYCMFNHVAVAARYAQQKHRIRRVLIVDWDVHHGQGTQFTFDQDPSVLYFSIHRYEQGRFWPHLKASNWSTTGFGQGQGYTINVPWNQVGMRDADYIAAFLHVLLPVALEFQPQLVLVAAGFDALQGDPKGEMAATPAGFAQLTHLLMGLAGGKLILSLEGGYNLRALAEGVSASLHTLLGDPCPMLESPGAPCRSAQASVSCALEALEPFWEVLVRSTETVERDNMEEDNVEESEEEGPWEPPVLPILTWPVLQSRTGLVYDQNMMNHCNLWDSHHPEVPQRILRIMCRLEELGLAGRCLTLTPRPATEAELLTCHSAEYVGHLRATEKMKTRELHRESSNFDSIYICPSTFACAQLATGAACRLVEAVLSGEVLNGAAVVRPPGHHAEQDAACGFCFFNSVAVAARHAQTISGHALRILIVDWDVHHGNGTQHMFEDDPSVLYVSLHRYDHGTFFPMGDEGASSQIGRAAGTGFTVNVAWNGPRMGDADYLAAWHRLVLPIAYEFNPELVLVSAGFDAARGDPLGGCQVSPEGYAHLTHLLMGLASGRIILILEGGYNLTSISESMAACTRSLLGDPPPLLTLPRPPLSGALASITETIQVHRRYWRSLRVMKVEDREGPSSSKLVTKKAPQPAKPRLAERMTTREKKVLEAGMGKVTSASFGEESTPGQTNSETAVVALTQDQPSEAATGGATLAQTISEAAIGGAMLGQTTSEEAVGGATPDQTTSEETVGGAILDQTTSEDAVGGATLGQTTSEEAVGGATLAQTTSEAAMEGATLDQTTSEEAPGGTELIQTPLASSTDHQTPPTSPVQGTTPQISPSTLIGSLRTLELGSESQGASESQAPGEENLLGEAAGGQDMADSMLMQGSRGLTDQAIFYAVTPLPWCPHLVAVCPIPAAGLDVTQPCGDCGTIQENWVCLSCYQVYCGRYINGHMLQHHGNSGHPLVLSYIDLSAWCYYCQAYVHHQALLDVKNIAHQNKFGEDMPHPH

U-937 [7] = assay: Induction of apoptosis in human U937 cells assessed as increase in PARP expression at 1 to 5 uM after 36 hrs by Western blot analysis; type: functional, cell-based
U-937 [8] = assay: Antiproliferative activity against human U937 cells after 72 hrs by MTT assay; type: functional, cell-based; details: U-937, 72 h
[9] = target: DNA (cytosine-5)-methyltransferase 1 (Homo sapiens) (UniProt P26358); assay: Inhibition of DNMT1 (unknown origin) at 100 uM using poly(dI-dC).poly(dI-dC) as substrate preincubated for 15 mins followed by substrate/[3H]-SAM addition measured after 120 mins by liquid scintillation counting analysis
Salmonella typhimurium [10] = assay: Genotoxicity in Salmonella typhimurium TA97 at 50 times IC50 by Ames test; type: toxicity; details: salmonella enterica subsp. enterica serovar typhimurium
U-937 [11] = assay: Induction of apoptosis in human U937 cells assessed as increase in cleaved caspase-3 level at 1 to 5 uM after 36 hrs by Western blot analysis; type: functional, cell-based
U-937 [12] = assay: Induction of apoptosis in human U937 cells assessed as viable cells at 10 uM after 48 hrs by Annexin V-FITC/PI staining based flow cytometry (reference value: 99.4%); type: functional; details: U-937, 48 h, read-out: Activity
U-937 [13] = assay: Induction of apoptosis in human U937 cells assessed as late apoptotic cells at 2.5 uM after 48 hrs by Annexin V-FITC/PI staining based flow cytometry (reference value: 0.438%); type: functional
Homo sapiens [14] = organism: Homo sapiens; assay: Inhibition of DNMT in human U937 cells assessed as induction of P16 CpG islands demethylation at 1 to 2.5 uM after 36 hrs by PCR analysis; type: cell-based
U-937 [15] = assay: Induction of apoptosis in human U937 cells assessed as necrotic cells at 5 uM after 48 hrs by Annexin V-FITC/PI staining based flow cytometry (reference value: 0%); type: functional
Salmonella typhimurium [16] = assay: Genotoxicity in Salmonella typhimurium TA102 at 50 times IC50 by Ames test; type: toxicity; details: salmonella enterica subsp. enterica serovar typhimurium
U-937 [17] = assay: Induction of apoptosis in human U937 cells assessed as early apoptotic cells at 5 uM after 48 hrs by Annexin V-FITC/PI staining based flow cytometry (reference value: 0.162%); type: functional
[18] = target: DNA (cytosine-5)-methyltransferase 1 (Homo sapiens) (UniProt P26358); assay: Inhibition of DNMT1 in human U937 cells assessed as increase in P16INK4A expression level at 1 to 5 uM after 36 hrs by Western blot analysis; type: cell-based
[19] = target: DNMT3B-DNMT3L complex (Homo sapiens) (UniProt Q9UBC3+Q9UJW3); assay: Inhibition of DNMT3B/3L (unknown origin) at 100 uM using biotinylated DNA oligonucleotides as substrate preincubated for 15 mins followed by substrate/[3H]-SAM addition measured after 4 hrs by liquid scintillation counting analysis; type: protein-complex assay
U-937 [20] = assay: Induction of apoptosis in human U937 cells assessed as necrotic cells at 2.5 uM after 48 hrs by Annexin V-FITC/PI staining based flow cytometry (reference value: 0%); type: functional
U-937 [21] = assay: Induction of apoptosis in human U937 cells assessed as viable cells at 5 uM after 48 hrs by Annexin V-FITC/PI staining based flow cytometry (reference value: 99.4%); type: functional; details: U-937, 48 h, read-out: Activity
U-937 [22] = assay: Induction of apoptosis in human U937 cells assessed as early apoptotic cells at 10 uM after 48 hrs by Annexin V-FITC/PI staining based flow cytometry (reference value: 0.162%); type: functional
[23] = target: DNMT3A2/3L complex (Homo sapiens) (UniProt Q9Y6K1+Q9UJW3); assay: Inhibition of DNMT3A/3L (unknown origin) at 100 uM using biotinylated DNA oligonucleotides as substrate preincubated for 15 mins followed by substrate/[3H]-SAM addition measured after 4 hrs by liquid scintillation counting analysis; type: protein-complex assay
U-937 [24] = assay: Induction of apoptosis in human U937 cells assessed as necrotic cells at 10 uM after 48 hrs by Annexin V-FITC/PI staining based flow cytometry (reference value: 0%); type: functional
Salmonella typhimurium [25] = assay: Genotoxicity in Salmonella typhimurium TA98 at 50 times IC50 by Ames test; type: toxicity; details: salmonella enterica subsp. enterica serovar typhimurium
U-937 [26] = assay: Induction of apoptosis in human U937 cells assessed as increase in cleaved PARP expression at 1 to 5 uM after 36 hrs by Western blot analysis; type: functional, cell-based
U-937 [27] = assay: Induction of apoptosis in human U937 cells assessed as cell death after 48 hrs by Annexin V-FITC/PI staining based flow cytometry; type: functional
Salmonella typhimurium [28] = assay: Genotoxicity in Salmonella typhimurium TA1535 at 50 times IC50 by Ames test; type: toxicity; details: salmonella enterica subsp. enterica serovar typhimurium
U-937 [29] = assay: Induction of apoptosis in human U937 cells assessed as early apoptotic cells at 2.5 uM after 48 hrs by Annexin V-FITC/PI staining based flow cytometry (reference value: 0.162%); type: functional

Chain of DNA (cytosine-5)-methyltransferase 1 (Homo sapiens) (P26358 whole entry): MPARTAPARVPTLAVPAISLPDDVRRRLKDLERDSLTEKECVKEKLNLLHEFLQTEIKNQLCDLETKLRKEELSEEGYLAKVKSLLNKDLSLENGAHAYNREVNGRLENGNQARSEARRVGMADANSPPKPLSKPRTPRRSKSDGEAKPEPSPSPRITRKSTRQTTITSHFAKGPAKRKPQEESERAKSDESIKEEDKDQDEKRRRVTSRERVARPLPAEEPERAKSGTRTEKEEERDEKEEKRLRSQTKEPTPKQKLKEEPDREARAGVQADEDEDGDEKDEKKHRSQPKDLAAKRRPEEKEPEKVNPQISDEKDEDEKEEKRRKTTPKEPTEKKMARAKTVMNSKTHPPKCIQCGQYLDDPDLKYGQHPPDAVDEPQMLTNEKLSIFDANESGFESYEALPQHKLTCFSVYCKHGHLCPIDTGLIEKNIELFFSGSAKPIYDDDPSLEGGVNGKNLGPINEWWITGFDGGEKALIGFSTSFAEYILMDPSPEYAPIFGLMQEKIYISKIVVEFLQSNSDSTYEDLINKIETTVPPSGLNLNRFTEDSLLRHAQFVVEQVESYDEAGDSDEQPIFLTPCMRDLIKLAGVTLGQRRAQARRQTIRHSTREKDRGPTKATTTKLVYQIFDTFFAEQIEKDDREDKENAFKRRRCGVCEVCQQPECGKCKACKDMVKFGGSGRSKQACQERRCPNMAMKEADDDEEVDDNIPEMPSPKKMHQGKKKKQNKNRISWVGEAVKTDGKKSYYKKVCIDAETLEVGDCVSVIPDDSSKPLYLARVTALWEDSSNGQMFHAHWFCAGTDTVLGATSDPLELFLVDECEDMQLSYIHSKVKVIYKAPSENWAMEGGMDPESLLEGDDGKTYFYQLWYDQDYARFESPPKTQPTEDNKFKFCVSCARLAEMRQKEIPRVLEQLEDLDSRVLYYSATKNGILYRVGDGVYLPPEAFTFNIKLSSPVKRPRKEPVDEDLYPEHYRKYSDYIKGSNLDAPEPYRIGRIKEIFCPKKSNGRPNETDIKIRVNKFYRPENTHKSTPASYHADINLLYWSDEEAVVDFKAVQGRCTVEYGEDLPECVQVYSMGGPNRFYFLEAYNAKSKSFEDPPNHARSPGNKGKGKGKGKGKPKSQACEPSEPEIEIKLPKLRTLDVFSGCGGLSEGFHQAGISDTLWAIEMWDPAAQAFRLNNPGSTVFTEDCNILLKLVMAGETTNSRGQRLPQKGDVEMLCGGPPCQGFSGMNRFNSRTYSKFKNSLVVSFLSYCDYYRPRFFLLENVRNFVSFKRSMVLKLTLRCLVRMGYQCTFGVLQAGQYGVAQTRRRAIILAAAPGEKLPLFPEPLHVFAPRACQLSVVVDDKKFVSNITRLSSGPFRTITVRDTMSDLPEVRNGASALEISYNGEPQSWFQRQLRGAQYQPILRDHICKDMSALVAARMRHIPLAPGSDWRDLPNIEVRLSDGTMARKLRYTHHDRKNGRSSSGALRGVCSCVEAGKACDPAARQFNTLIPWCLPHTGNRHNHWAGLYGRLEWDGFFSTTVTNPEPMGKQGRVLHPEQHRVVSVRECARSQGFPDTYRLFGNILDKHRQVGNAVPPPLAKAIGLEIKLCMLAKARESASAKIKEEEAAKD
Chain of DNMT3A2/3L complex (Homo sapiens) (Q9UJW3 whole entry, looked up): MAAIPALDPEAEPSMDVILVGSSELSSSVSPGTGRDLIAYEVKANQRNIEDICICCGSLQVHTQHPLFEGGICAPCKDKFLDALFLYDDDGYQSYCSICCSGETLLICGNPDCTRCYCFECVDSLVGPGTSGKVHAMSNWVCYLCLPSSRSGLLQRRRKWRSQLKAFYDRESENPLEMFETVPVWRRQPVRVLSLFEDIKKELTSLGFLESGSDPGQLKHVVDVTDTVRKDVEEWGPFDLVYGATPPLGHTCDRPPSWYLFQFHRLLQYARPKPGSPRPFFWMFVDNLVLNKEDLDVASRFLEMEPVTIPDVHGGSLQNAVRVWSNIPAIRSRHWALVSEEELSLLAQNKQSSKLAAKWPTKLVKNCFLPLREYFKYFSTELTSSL
Chain of DNMT3A2/3L complex (Homo sapiens) (Q9Y6K1 whole entry, looked up): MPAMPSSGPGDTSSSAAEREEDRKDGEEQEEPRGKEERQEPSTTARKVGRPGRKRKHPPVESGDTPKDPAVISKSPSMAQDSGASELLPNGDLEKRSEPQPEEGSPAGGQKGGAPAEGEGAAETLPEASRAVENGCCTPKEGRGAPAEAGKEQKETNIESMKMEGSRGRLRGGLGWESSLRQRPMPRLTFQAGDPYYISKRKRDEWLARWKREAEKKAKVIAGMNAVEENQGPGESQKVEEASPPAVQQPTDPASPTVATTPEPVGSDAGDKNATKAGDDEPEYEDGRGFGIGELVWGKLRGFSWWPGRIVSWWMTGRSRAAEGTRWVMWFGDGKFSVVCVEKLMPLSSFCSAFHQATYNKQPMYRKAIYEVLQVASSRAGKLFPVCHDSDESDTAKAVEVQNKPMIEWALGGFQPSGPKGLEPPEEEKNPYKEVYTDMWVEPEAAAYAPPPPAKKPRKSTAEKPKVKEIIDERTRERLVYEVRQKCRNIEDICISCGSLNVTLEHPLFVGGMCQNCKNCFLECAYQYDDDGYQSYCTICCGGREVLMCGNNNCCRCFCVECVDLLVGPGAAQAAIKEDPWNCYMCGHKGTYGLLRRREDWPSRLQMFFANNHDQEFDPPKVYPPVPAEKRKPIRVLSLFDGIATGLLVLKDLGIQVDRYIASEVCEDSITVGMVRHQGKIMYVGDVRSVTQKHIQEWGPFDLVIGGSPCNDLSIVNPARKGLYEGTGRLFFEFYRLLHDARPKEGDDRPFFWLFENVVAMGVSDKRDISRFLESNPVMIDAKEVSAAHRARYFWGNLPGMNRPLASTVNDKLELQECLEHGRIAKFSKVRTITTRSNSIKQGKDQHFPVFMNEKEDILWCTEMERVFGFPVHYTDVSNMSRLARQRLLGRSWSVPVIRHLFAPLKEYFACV
Chain of DNMT3B-DNMT3L complex (Homo sapiens) (Q9UJW3 whole entry, looked up, other chains not shown): as the sequence (Q9UJW3 whole entry, looked up) above
Chain of Histone deacetylase 1 (Q13547 whole entry): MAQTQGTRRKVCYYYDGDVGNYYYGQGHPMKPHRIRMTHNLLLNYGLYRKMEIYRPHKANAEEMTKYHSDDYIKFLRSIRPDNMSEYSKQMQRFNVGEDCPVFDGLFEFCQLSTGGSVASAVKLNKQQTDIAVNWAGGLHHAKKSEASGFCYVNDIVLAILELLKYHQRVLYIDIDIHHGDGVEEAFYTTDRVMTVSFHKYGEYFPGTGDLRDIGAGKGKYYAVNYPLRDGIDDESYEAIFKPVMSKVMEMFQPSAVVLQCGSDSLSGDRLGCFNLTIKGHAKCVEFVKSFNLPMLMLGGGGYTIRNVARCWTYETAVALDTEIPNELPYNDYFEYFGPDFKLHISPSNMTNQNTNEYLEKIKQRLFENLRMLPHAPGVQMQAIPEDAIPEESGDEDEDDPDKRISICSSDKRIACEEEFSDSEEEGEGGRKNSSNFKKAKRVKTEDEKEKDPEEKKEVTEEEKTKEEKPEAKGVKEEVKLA

- IC50 (K562): 2850 nM
- IC50 (Histone deacetylase 1): 56.8 nM
- IC50 [6]: 17.4 nM
- IC50 (U-937 [8]): 1060 nM
- inhibition [9]: 69.9 to 70%
- inhibition [18]: Active
- inhibition [19]: 48 to 48.5%
- inhibition [23]: 23 to 23.4%
SMILES: O=C(/C=C/c1ccc(CCNC(=O)c2cc(C(F)(F)F)ccc2Cl)cc1)NO
- inhibition (Homo sapiens [1]): Dose-dependent effect
- viability at 2.5 µM (U-937 [2]): 56%
- Activity (U-937 [3]): 68.3%
- inhibition (Homo sapiens [4]): Dose-dependent effect
- Activity (U-937 [5]): 50.7%
- Activity (U-937 [7]): Active
- Activity (Salmonella typhimurium [10]): Non-Toxic
- Activity (U-937 [11]): Active
- viability at 10 µM (U-937 [12]): 0.784%
- Activity (U-937 [13]): 30.7%
- inhibition (Homo sapiens [14]): Active
- Activity (U-937 [15]): 0.384%
- Activity (Salmonella typhimurium [16]): Non-Toxic
- Activity (U-937 [17]): 48.2%
- Activity (U-937 [20]): 0.452%
- viability at 5 µM (U-937 [21]): 0.725%
- Activity (U-937 [22]): 30.1%
- Activity (U-937 [24]): 0.846%
- Activity (Salmonella typhimurium [25]): Non-Toxic
- Activity (U-937 [26]): Active
- Activity (U-937 [27]): Dose-dependent effect
- Activity (Salmonella typhimurium [28]): Non-Toxic
- Activity (U-937 [29]): 12.9%
